{"source": "paper PMC6554663", "about": "“Pharmaceutical Effects of Inhibiting the Soluble Epoxide Hydrolase in Canine Osteoarthritis” (Frontiers in Pharmacology, 2019)", "test_system": "Canine chondrocytes (CnC)", "assay": "IL1β induced chondrocyte cytotoxicity (Alamar Blue)", "format": "cell-based", "conditions": "meloxicam 1 μg/mL, EET 0.4 μg/mL total, 48 h", "procedure": "Canine chondrocytes (CnC) were purchased from Cell Applications, Inc. […] Cells were kept at room temperature and monitored for detachment (∼2 min). Detached cells were added to 3× volume of full growth media and centrifuged to remove trypsin. Cells were reseeded at a concentration of 15,000 cells/cm^2 to reach 80% confluence in 3 days. Cells were expanded and frozen at the third passage in CGS containing 10% DMSO. For individual experiments, fresh cells were thawed and used at passage 5. Canine chondrocytes cells were plated in 96-well plates at a density of 15,000 cells/cm^2. Optimal cell number was predetermined by a cell seeding experiment outlined in [O'Brien et al. […] After 2 h, the IL1β treated media was aspirated and replaced with complete growth media supplemented with either vehicle (0.1% ethanol), regioisomers of EETs, or meloxicam for 48-h before assessing inflammatory cytokines and cytotoxicity. Cells were also pretreated with meloxicam or EET mixture 30 min prior to adding IL1β treatment for 2-h. After IL1β was removed, treatments were added to complete growth media for 48-h as described above. Treatment conditions are described in the Section “Results.” After the CnC cells were treated for 48-h under conditions described above, the media was removed and replaced with complete media containing 10% Alamar Blue (Life Technologies, catalog number DAL1025). The Alamar Blue assay relies on the metabolism of non-fluorescent resazurin to the highly fluorescent resorufin by healthy cells. Fluorescent intensity can be used to track cytotoxicity after xenobiotic treatments ([Larson et al., 1997]). After the addition of Alamar Blue, plates were protected from light and incubated at […] in a 5% CO2 atmosphere for 8 h. The conversion of resazurin was monitored by reading fluorescence at 570 excitations and 585 emission on a plate reader (Tecan […]) and cytotoxicity was calculated as the ratio of fluorescence from treated cells to non-treated controls."}
{"compound": "Cc1cnc(NC(=O)C2=C(O)c3ccccc3S(=O)(=O)N2C)s1", "note": "[Meloxicam]", "values": [{"measurement": "IL1β induced cytotoxicity, treatment added after IL1β", "setting": "10 ng/mL IL1β 2 h", "result": "did not result in significant reduction in cytotoxicity"}, {"measurement": "IL1β induced cytotoxicity, treatment added before IL1β", "setting": "10 ng/mL IL1β 2 h", "result": "significantly reduced"}, {"measurement": "effect on healthy CnC cells (cytotoxicity, Alamar Blue)", "setting": "absence of IL1β", "result": "no effect"}]}
